Patent publication US20110086389A1, “Compositions and Methods for Expressing In-Frame Multimeric Proteins” (priority 2008, published 2011)
Read-outs that look alike come from different tables or passages of the source. Where a SMILES comes first, the peptide text is derived from it. Bridges are numbered along the chain shown (N, C = ends). Where no end group is shown, it is not given here.

How the values were obtained:
[1] = target: T1, Kv1.2-1.1-1.2-1.1 (reverse diagonal channel) (Rattus norvegicus, UniProt P10499+P63142); test: Whole-cell voltage-clamp (QPatch) inhibition of K+ current, reverse diagonal channel; type: cell-based; conditions: HEK-293 cells
T1 construct: nucleic acids encoding the full-length Kv subunit; inter-subunit linker to next subunit (region from Xenopus beta-globin UTRs); expressed in transfected cells; host or cells: HEK-293 (pIRES2-EGFP vector)
Experimental: (§1) Whole-cell voltage-clamp experiments were performed as outlined in Sokolov, et al., Neuropharmacol. 53:2, 272-282, (2007), whose disclosure is hereby incorporated by reference. The internal solution was (in mM): 90 KCl, 50 KF, 30 KOH, 10 EGTA, 20 HEPES, pH 7.4. The extracellular bath solution contained (in mM) 135 choline chloride, 20 KOH, 1.8 CaCl2, 1 MgCl2, and 40 HEPES, pH 7.4, and 0.01% (w/v) BSA. Solutions were exchanged by continuous flow with a peristaltic pump or a Cellectricon Dynaflow-16 system. Series resistance compensation was applied to minimize the voltage error (<10 mV). Correction was made for a calculated liquid junction potential of +8.4 mV. Holding potential was −100 mV. Leak subtraction was used to isolate K^+ current (IK). Analogue traces were filtered at 5 kHz, and sampled at 50 kHz. Non-linear fitting was carried out with equations described in (Sack et al., Gen. Physiol. 128:1, 119-132, (2006), whose disclosure is hereby incorporated by reference. Data are reported as mean±standard error; n values refer to number of individual cells tested. Statistical significance was evaluated by two-tailed Student's t-test using data obtained from at least five independent experiments performed in parallel.
(§2) In these examples, the functional properties of the Kv1 heteromers Kv1.1-1.1-1.2-1.2, Kv1.1-1.2-1.1-1.2, […] and Kv1.2-1.1-1.2-1.1 were compared by whole-cell, voltage-clamp, conventional recordings from HEK-293 cells transfected separately with each of the 4 constructs.
(§3) In these examples the sensitivities of the potassium channel currents mediated by these tetramers to various blockers were also examined. Inhibition by TEA, or Agitoxinl (AgTX1) and TsTX-Kα were determined.
(§4) Whole-cell voltage-clamp was performed as described in Example 25-27, except where specified. […] Whole cell currents were measured at a holding potential of −100 mV, then depolarised to +60 mV for 200 ms or stepped from the holding potential in +10 mV increments. […]

[2] = target: T2, Kv1.1-1.1-1.2-1.2 (forward adjacent channel) (Rattus norvegicus, UniProt P10499+P63142); test: Whole-cell voltage-clamp (QPatch) inhibition of K+ current, adjacent channel; type: cell-based; conditions: for IC50: HEK-293 cells, holding −100 mV, depolarised to +60 mV
T2 construct: nucleic acids encoding the full-length Kv subunit; inter-subunit linker to next subunit (region from Xenopus beta-globin UTRs); expressed in transfected cells; host or cells: HEK-293 (pIRES2-EGFP vector)
Experimental: as §1, §2, §3
(§5) Whole-cell voltage-clamp was performed as described in Example 25-27, except where specified. For larger scale recordings, an automated patch-clamp system (QPatch 16, Sophion, Denmark) was used; its disposable Qplates contain 16 individual and parallel patch-clamp positions. Cells were detached from culture plates with 0.05% trypsin/EDTA solution and kept in serum-free medium (CHO-S-SFM II [Invitrogen], 25 mM HEPES, pH 7.4, 0.04 μg/ml soya bean trypsin inhibitor, and 10 μg/ml penicillin-streptomycin) in an on-board stirred reservoir. Prior to testing, the cells were automatically transferred to an integral mini-centrifuge, pelleted, re-suspended in external solution (as detailed above) and washed before being applied to the pipeting wells in the Q plate. Giga-seals were formed upon execution of a combined suction/voltage protocol; gradually increasing suction leads to the whole-cell configuration. […] Whole cell currents were measured at a holding potential of −100 mV, then depolarised to +60 mV for 200 ms or stepped from the holding potential in +10 mV increments. […]

[3] = target: T3, Kv1.1-1.2-1.1-1.2 (forward diagonal channel) (Rattus norvegicus, UniProt P10499+P63142); test: Whole-cell voltage-clamp (QPatch) inhibition of K+ current, diagonal channel; type: cell-based; conditions: for IC50: HEK-293 cells
T3 construct: nucleic acids encoding the full-length Kv subunit; inter-subunit linker to next subunit (region from Xenopus beta-globin UTRs); expressed in transfected cells; host or cells: HEK-293 (pIRES2-EGFP vector)
Experimental: as §1, §2, §3, §5

[4] = target: T4, Kv1.2-1.2-1.1-1.1 (reverse adjacent channel) (Rattus norvegicus, UniProt P10499+P63142); test: Whole-cell voltage-clamp (QPatch) inhibition of K+ current, reverse adjacent channel; type: cell-based; conditions: HEK-293 cells, holding −100 mV, depolarised to +60 mV
T4 construct: nucleic acids encoding the full-length Kv subunit; inter-subunit linker to next subunit (region from Xenopus beta-globin UTRs); expressed in transfected cells; host or cells: HEK-293 (pIRES2-EGFP vector)
Experimental: as §1, §2, §3, §4

[5] = target: T5, Kv1.1-1.2 dimer-containing channel (Rattus norvegicus, UniProt P10499+P63142); test: Whole-cell voltage-clamp inhibition of K+ current, dimer-containing channel; type: cell-based; conditions: HEK-293 cells
T5 construct: expressed in transfected cells
Experimental: as §1, §2, §3, §4

[6] = target: T6, Kv1.1-1.1-1.2-1.2 tetramer (Rattus norvegicus, UniProt P10499+P63142); test: Competition of 125I-αDTX binding to transfected HEK-293 cells; set-up: displacement of 125I-αDTX from the tetramer: dose or concentration left out as unconfirmed; conditions: for displacement of 125I-αDTX from the tetramer: transfected HEK-293 cells, FIG. 4B
T6 construct: nucleic acids encoding the full-length Kv subunit; inter-subunit linker to next subunit (region from Xenopus beta-globin UTRs); expressed in transfected cells; host or cells: HEK-293 (pIRES2-EGFP vector)
Experimental: HEK 293 cells are transiently transfected with a PIRES2-EGFP vector encoding Kv1.1-1.1-1.2-1.2 (also referred to as forward adjacent channel; see below) and the cells incubated to display the potassium channels on the cell membranes.
Cells are harvested in 25 mM Tris HCl, 5 mM KCl pH 7.5 Saturatable binding of ^125I-α-dendrotoxin (DTX), a Kv1-selective toxin, was performed using a filtration assay to measure the amount of assembled channel targeted to the plasmalemma. Transfected cells suspended in binding buffer were incubated for 1 hour with increasing concentrations of labelled DTX; for non-saturable binding experiments, the incubation is performed in the presence of 1 μM unlabeled DTX. Measurements are made in triplicate under established conditions by rapid filtration through GF/F glass microfiber filters presoaked with 0.5% (w/v) polyethyleneimine. The radioactivity associated with the washed filters was quantified by γ-radiation counting.
In FIG. […]

Kv1.4-1.6-1.1-1.2 = target: T7, Kv1.4-1.6-1.1-1.2 (Rattus norvegicus, UniProt P10499+P15385+P17659+P63142); test: Whole-cell voltage-clamp inhibition of IK, Kv1.4-containing hetero-tetramers; type: cell-based; conditions: Kv1.4-1.6-1.1-1.2 versus Kv1.4-1.6-1.3-1.2; 1, 10, 100 nM; assayed at ≦0 mV, FIG. 10F
T7 construct: nucleic acids encoding the full-length Kv subunit; inter-subunit linker to next subunit (region from Xenopus beta-globin UTRs); expressed in transfected cells; host or cells: HEK-293
Experimental: In these examples, the functional properties of the concatenated Kv1 heteromers Kv 1.1-1.1-1.2-1.2, Kv1.4-1.6-1.1-1.2 and Kv1.4-1.6-1.3-1.2 were examined by whole-cell voltage-clamped recordings from the corresponding transfected HEK-293 cells. The activation kinetics of the currents mediated by Kv 1.1-1.1-1.2-1.2 Kv 1.4-1.6-1.1-1.2 and Kv1.4-1.6-1.3-1.2 were determined.
The sensitivities of the potassium channel currents mediated by Kv 1.1-1.1-1.2-1.2 Kv 1.4-1.6-1.1-1.2 and Kv1.4-1.6-1.3-1.2 to various blockers were also examined in these examples.
Whole-cell voltage-clamp experiments were performed as outlined in Sokolov, et al., Neuropharmacol. 53:2, 272-282, (2007), whose disclosure is hereby incorporated by reference. The internal solution was (in mM): 90 KCl, 50 KF, 30 KOH, 10 EGTA, 20 HEPES, pH 7.4. […] Correction was made for a calculated liquid junction potential of +8.4 mV. […] Non-linear fitting was carried out with equations described in (Sack et al., Gen. Physiol. 128:1, 119-132, (2006), whose disclosure is hereby incorporated by reference. Data are reported as mean±standard error; n values refer to number of individual cells tested. Statistical significance was evaluated by two-tailed Student's t-test using data obtained from at least five independent experiments performed in parallel.

[7] = unit printed in cell (row head says nM), read-out: IC50 AgTx1
[8] = unit printed in cell (row head says nM), read-out: IC50 TsTxKα
[9] = holding −100 mV, depolarised to +60 mV, read-out: IC50 TEA

T2 sequence (P10499 whole entry): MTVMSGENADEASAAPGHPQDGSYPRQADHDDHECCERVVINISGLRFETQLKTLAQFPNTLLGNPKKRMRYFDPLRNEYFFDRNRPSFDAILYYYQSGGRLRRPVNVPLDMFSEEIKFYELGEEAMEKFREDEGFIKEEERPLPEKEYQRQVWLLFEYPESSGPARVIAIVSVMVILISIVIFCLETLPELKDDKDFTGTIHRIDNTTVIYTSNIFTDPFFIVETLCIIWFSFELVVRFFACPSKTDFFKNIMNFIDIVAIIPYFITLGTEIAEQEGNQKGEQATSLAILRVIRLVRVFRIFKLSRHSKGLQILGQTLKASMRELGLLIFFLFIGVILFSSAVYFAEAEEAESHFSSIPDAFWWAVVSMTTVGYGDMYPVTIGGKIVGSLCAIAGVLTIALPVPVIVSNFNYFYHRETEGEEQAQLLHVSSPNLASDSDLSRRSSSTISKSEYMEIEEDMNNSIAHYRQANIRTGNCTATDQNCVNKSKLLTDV
T2 sequence (P10499 whole entry): as above
T2 sequence (P63142 whole entry): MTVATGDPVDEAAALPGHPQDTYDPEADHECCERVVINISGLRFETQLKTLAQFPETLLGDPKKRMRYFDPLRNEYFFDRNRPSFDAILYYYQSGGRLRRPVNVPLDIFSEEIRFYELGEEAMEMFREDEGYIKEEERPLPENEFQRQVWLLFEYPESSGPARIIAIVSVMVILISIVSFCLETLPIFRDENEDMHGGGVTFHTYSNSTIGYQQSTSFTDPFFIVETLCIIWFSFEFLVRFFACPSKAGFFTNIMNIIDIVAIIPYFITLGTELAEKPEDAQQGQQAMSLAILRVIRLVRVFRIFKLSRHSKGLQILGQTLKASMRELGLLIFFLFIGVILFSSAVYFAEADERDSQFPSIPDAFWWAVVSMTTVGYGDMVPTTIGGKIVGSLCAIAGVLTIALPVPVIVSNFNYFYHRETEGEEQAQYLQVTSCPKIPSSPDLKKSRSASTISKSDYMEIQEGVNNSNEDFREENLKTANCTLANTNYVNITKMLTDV
T2 sequence (P63142 whole entry): as above
T3 sequence (P10499 whole entry): as the sequence (P10499 whole entry) above
T3 sequence (P63142 whole entry): as the sequence (P63142 whole entry) above
T3 sequence (P10499 whole entry): as the sequence (P10499 whole entry) above
T3 sequence (P63142 whole entry): as the sequence (P63142 whole entry) above
T6 sequence (P10499 whole entry): as the sequence (P10499 whole entry) above
T6 sequence (P10499 whole entry): as above
T6 sequence (P63142 whole entry): as the sequence (P63142 whole entry) above
T6 sequence (P63142 whole entry): as above
T5 sequence (P10499 whole entry): as the sequence (P10499 whole entry) above
T5 sequence (P63142 whole entry): as the sequence (P63142 whole entry) above
T1 sequence (P63142 whole entry): as above
T1 sequence (P10499 whole entry): as the sequence (P10499 whole entry) above
T1 sequence (P63142 whole entry): as the sequence (P63142 whole entry) above
T1 sequence (P10499 whole entry): as the sequence (P10499 whole entry) above
T4 sequence (P63142 whole entry): as the sequence (P63142 whole entry) above
T4 sequence (P63142 whole entry): as above
T4 sequence (P10499 whole entry): as the sequence (P10499 whole entry) above
T4 sequence (P10499 whole entry): as above
T7 sequence (P15385 whole entry): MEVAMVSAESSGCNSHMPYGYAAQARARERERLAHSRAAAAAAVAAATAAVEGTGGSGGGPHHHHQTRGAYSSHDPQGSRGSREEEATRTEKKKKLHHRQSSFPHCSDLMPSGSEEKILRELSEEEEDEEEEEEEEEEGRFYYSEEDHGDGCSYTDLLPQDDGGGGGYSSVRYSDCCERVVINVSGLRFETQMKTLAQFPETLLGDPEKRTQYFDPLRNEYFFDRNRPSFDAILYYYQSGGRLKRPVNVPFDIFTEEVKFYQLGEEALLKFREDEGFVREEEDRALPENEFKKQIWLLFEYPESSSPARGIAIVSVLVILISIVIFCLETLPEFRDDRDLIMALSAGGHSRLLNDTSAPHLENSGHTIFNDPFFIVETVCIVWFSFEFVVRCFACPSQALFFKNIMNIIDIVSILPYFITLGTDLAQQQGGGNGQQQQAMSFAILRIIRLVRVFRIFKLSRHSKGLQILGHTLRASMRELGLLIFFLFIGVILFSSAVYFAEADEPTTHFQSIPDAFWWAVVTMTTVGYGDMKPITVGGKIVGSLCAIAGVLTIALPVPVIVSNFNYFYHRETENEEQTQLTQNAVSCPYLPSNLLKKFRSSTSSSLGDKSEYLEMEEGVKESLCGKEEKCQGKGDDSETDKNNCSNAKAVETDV
T7 sequence (P17659 whole entry): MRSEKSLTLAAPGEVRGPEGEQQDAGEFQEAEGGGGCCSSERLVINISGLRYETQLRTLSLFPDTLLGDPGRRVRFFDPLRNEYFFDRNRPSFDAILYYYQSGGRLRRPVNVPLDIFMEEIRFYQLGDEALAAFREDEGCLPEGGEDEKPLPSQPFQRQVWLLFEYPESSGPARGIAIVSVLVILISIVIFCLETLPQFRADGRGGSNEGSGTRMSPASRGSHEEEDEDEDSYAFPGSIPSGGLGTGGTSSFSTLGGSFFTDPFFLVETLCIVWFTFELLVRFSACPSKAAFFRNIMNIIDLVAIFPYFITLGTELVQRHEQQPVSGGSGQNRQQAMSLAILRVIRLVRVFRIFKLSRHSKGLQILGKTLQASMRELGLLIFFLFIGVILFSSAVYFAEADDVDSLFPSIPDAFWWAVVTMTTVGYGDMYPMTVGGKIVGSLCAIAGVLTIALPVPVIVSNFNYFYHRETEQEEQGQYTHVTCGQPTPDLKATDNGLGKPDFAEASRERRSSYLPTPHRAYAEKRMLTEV
T7 sequence (P10499 whole entry): as the sequence (P10499 whole entry) above
T7 sequence (P63142 whole entry): as the sequence (P63142 whole entry) above

For CC[C@H](C)[C@@H]1NC(=O)[C@@H]2CSSC[C@H](NC(=O)[C@H](CCCCN)NC(=O)[C@@H](NC(=O)[C@H](CC(N)=O)NC(=O)[C@@H](NC(=O)[C@@H]3CCCN3C(=O)[C@@H](NC(=O)CN)C(C)C)[C@@H](C)CC)C(C)C)C(=O)N[C@@H]([C@@H](C)O)C(=O)NCC(=O)N[C@@H](CO)C(=O)N3CCC[C@H]3C(=O)N[C@@H](CCC(N)=O)C(=O)N[C@H]3CSSC[C@H](NC(=O)[C@H](CCCCN)NC(=O)CNC(=O)[C@H](CC(N)=O)NC1=O)C(=O)N[C@@H](Cc1c[nH]cn1)C(=O)N[C@H](C(=O)N[C@H](C(=O)N1CCC[C@H]1C(=O)N[C@@H](CCCCN)C(=O)O)[C@@H](C)O)CSSC[C@H](NC(=O)[C@@H]1CCCN1C(=O)[C@H](CCCCN)NC(=O)[C@H](CC(C)C)NC3=O)C(=O)N[C@@H](CCCCN)C(=O)N[C@@H](CC(=O)O)C(=O)N[C@@H](C)C(=O)NCC(=O)N[C@@H](CCSC)C(=O)N[C@@H](CCCNC(=N)N)C(=O)N[C@@H](Cc1ccccc1)C(=O)NCC(=O)N[C@@H](CCCCN)C(=O)N2 [AgTx1, Agitoxinl] (H-GVPINVKCTGSPQCLKPCKDAGMRFGKCINGKCHCTPK-OH; disulfide 8-28, 14-33, 18-35; N-terminus and C-terminus assumed), the IC50 [1, 7] was no less than 1000 nM, the IC50 ([2]; read-out: IC50 AgTx1) was 0.005 ± 0.0004 µM and the IC50 [3, 7] was greater than 1000 nM. The “sensitivity to AgTX1” value ([3]; diagonal oligomers, FIG. 12C) was “virtually insensitive”, the IC50 ([4]; read-out: IC50 AgTx1) was 0.005 ± 0.0005 µM and the IC50 ([5]; read-out: IC50 AgTx1) was 0.039 ± 0.004 µM.
In the case of CC[C@H](C)[C@@H]1NC(=O)[C@H](C)NC(=O)[C@H](CCC(=O)O)NC(=O)[C@H](CCCCN)NC(=O)[C@@H]2CSSC[C@@H](C(=O)N[C@@H](Cc3ccc(O)cc3)C(=O)N3CCC[C@H]3C(=O)O)NC(=O)[C@H](CCCCN)NC(=O)[C@@H]3CSSC[C@H](NC(=O)[C@H](CCC(=O)O)NC(=O)[C@@H]4CCCN4C(=O)[C@H](CO)NC(=O)CNC(=O)[C@H](CCCNC(=N)N)NC(=O)[C@@H](NC(=O)[C@H](CCCCN)NC(=O)[C@H](C)NC(=O)[C@H](CC(N)=O)NC(=O)[C@@H](NC(=O)[C@H](Cc4ccccc4)NC(=O)[C@@H](N)C(C)C)[C@@H](C)CC)CSSC[C@H](NC(=O)[C@H](CCCCN)NC(=O)CNC(=O)[C@H](C)NC(=O)[C@H](C)NC(=O)[C@H](CCCCN)NC(=O)CNC1=O)C(=O)N[C@@H](CCSC)C(=O)N[C@@H](CC(N)=O)C(=O)NCC(=O)N[C@@H](CCCCN)C(=O)N3)C(=O)N[C@@H](CC(C)C)C(=O)N1CCC[C@H]1C(=O)N[C@@H](CCCCN)C(=O)N2 [TsTxKα, tityustoxin-Kα] (H-VFINAKCRGSPECLPKCKEAIGKAAGKCMNGKCKCYP-OH; disulfide 7-28, 13-33, 17-35; N-terminus and C-terminus assumed), the “displacement of 125I-αDTX from the tetramer” value (“displacement of 125I-αDTX” below) [6] is reported as “readily displaced”, the IC50 [1, 8] is reported as greater than 1000 nM and the IC50 ([2]; read-out: IC50 TsTxKα) is reported as 0.026 ± 0.003 µM. The IC50 [3, 8] was greater than 1000 nM, the IC50 ([4]; read-out: IC50 TsTxKα) was 0.025 ± 0.007 µM and the IC50 ([5]; read-out: IC50 TsTxKα) was 0.033 ± 0.003 µM.
“α-dendrotoxin (QPRRKLCILHRNPGRCYDKIPAFYYNQKKKQCERFDWSGCGGNSNRFKTIEECRRTCIG) [αDTX]” was tested, and the “displacement of 125I-αDTX” value [6] was “readily displaced”.
CC[N+](CC)(CC)CC [TEA, tetraethylammonium] was tested, and the IC50 [1, 9] was 960000 ± 140000 nM, the IC50 ([2]; read-out: IC50 TEA) was 9700 ± 1000 µM and the “fold lower affinity for TEA than the corresponding diagonals” value ([2]; forward and reverse adjacent channels versus diagonal channels, FIG. 12B) was roughly 11 fold. For the same molecule, the IC50 [3, 9] was 760000 ± 100000 nM, the IC50 ([4]; read-out: IC50 TEA) was 6700 ± 2000 µM and the IC50 ([5]; read-out: IC50 TEA) was 12000 ± 1000 µM.
In the case of “ShK: toxin competing with 125I-αDTX binding; parent of derivative ShK-Dap^22”, the “antagonism of 125I-αDTX binding” value ([6]; 2.5 μM 125I-αDTX, transfected HEK cells, FIG. 4C) is reported as “to a greater extent than does the derivative ShK-Dap^22”.
In the case of “DTXk: toxin, Kv1 channel blocker competing with 125I-αDTX (AAKYCKLPLRIGPCKRKIPSFYYKWKAKQCLPFDYSGCGGNANRFKTIEECRRTCVG; ends and bridges not checked; cysteine pairing not given here)”, the “displacement of 125I-αDTX” value [6] is reported as “readily displaced” and the “inhibition of IK, sensitivity difference between channels” value (Kv1.4-1.6-1.1-1.2) is reported as “significant sensitivity difference”.
